Experimental data taken from US20260258084A1, “New Peptides as Selective IL-23 Receptor Antagonists” (Sanofi, priority 2022, published 2026).
In brackets after ≈: the same amount, converted by molar mass. Read-outs that look alike come from different tables or passages of the source. Starred links: 1 amine or outer side, 2 acyl side, 3 side chain; linkers in the order of their positions; H or OH if unused. Positions of bridges follow the written chain, without caps; N, C: chain ends. Non-standard residues stand in square brackets, D forms with d. Residues, ends and D or L forms follow the SMILES beside them. *: point of attachment. X3 = CN(CCCCC(=O)N[C@@H](CS[*:2])C(=O)[*:1])[*:3]; Trp(7-Me) = Cc1cccc2c(C[C@H](N)C(=O)O)c[nH]c12; 2Nal = N[C@@H](Cc1ccc2ccccc2c1)C(=O)O; AEF = NCCOc1ccc(C[C@H](N)C(=O)O)cc1; 3Pal = N[C@@H](Cc1cccnc1)C(=O)O; αMeL = CC(C)C[C@](C)(N)C(=O)O; Thp = NC1(C(=O)O)CCOCC1; Me2NCH2CH2 = CN(C)CC*; Aib = CC(C)(N)C(=O)O; Ava = NCCCCC(=O)O; βAla = NCCC(=O)O; Sar = CNCC(=O)O

Experiments:
[1] = target: T1, human interleukin-23 receptor (recombinant human IL-23R-Fc chimera) (Homo sapiens, UniProt Q5VWK5); assay: Human ELISA IL23/IL23R (assay for specific human IL23R antagonists); assay type: binding; conditions: Table 10; read-out: Human ELISA IL23/IL23R IC50
T1 construct: Fc (IgG Fc fusion)
Summary of the method: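 Competition format: peptide dilutions compete for IL23R-Fc chimera (0.1 μg/ml final, 60 min, room temperature) binding to immobilized human IL23 coated at […] overnight at 4 °C. Read-out is fluorogenic HRP signal from goat anti-hu-IgG1 detecting captured receptor.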

Pepsin = test system: T2, Pepsin; assay: Protease stability in simulated gastric fluid (Pepsin-SGF, FaSSGF); assay type: in vitro ADME; conditions: simulated gastric fluid with pepsin (Pepsin-SGF), 60 min, 1 μM peptide, 37° C., read-out: FaSSGF 60 (min), remaining percent of peptide
T2 construct: purchased Merck Millipore
Summary of the method: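 LCMS/MS peak areas, normalised to the time-0 sample as 100%, give percent remaining. Conditions: 37° C incubation of 1 μM final peptide in simulated gastric fluid with pepsin; ethanol/0.1% HCOOH quench at 0, 60, 120, 240 min.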

[2] = test system: IL-23 induced STAT3 signaling in HEK-Blue™ IL-23 cells; assay: IL-23 induced STAT3 signaling in HEK-Blue IL-23 cells (SEAP reporter); assay type: cell-based; conditions: human IL23 0.25 ng/ml, read-out: pSTAT3
Summary of the method: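 Secreted SEAP, read at OD 620-655 nm after 45 min QUANTI-Blue development, reports STAT3 activation. Beforehand, cells were exposed to peptide dilutions for 60 min at 37 °C and then to 0.25 ng/ml final human IL-23 overnight, at 10,000 cells/well.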

Pancreatin = assay: Protease stability in simulated intestinal fluid (Pancreatin-SIF, FaSSIF); assay type: in vitro ADME; conditions: 1 μM peptide, 37° C.; for remaining at 1 h, 1 µM: 60 min, read-out: FaSSIF 60 (min), remaining percent of peptide; for remaining at 2 h, 1 µM: 120 min, read-out: FaSSIF 120 (min), remaining percent of peptide; for remaining at 4 h, 1 µM: 240 min, read-out: FaSSIF 240 (min), remaining percent of peptide
Summary of the method: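 LC-MS/MS peak areas at 0, 60, 120 and 240 min, normalised to time 0 as 100%, give percent remaining. Reactions used 1 μM final peptide at 37° C in pancreatin-SIF (1 mg pancreatin in 10 mL SIF concentrate) and were stopped with ethanol containing 0.1% HCOOH.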

[3] = Solubility testing of peptides at different pH; assay type: physicochemical; conditions: target concentration 1 mg/ml, 2 hours agitation
Summary of the method: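 Four buffers were used: 50 mM HCl pH 1.2 and 50 mM phosphate at pH 6.5, 7.4 and 9.0, each receiving dried-down compound at a 1 mg/mL target. After 2 h gentle shaking and 0.45 μm filtration, UV peak areas were compared with a DMSO standard curve of known concentration, allowing for extinction coefficients.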

[4] = 50 mM HCl buffer, 50 mM HCl pH 1.2, read-out: Solubility Buffer pH 1.2
[5] = 50 mM phosphate buffer pH 6.5, read-out: Solubility Buffer pH 6.5
[6] = 50 mM phosphate buffer pH 7.4, read-out: Solubility Buffer pH 7.4
[7] = 50 mM phosphate buffer pH 9.0, read-out: Solubility Buffer pH 9.0

| SMILES | IC50 [1] [pM] | remaining at 1 h, 1 µM (Pepsin) [%] | IC50 [2] [pM] | remaining at 1 h, 1 µM (Pancreatin) [%] | remaining at 2 h, 1 µM (Pancreatin) [%] | remaining at 4 h, 1 µM (Pancreatin) [%] | solubility at 2 h [3, 4] [µg/mL] | solubility at 2 h [3, 5] [µg/mL] | solubility at 2 h [3, 6] [µg/mL] | solubility at 2 h [3, 7] [µg/mL] |
| --- | --- | --- | --- | --- | --- | --- | --- | --- | --- | --- |
| CC(=O)N[C@H]1CCCCNC(=O)[C@@H]2CSSC[C@H](NC(=O)[C@H](CCC(N)=O)NC(=O)[C@H](Cc3c[nH]c4ccccc34)NC1=O)C(=O)N[C@@H](Cc1ccc(OCCN)cc1)C(=O)N[C@@H](Cc1ccc3ccccc3c1)C(=O)N[C@@](C)(CC(C)C)C(=O)N[C@H](C(=O)N[C@@H](C)C(=O)N[C@H](CC(C)C)C(N)=O)CCC(=O)N(C)CCCCC(=O)N2 [compound 44] (Ac-KWQC[AEF][2Nal][αMeL]EA[dL]-NH2; linker 1-4-8 via X3) | 1160 | 88 | 42500 | 64 | 61 | 59 | < 10 | < 10 | < 10 | < 10 |
| CC(=O)NCCCC[C@@H]1NC(=O)[C@H](Cc2c[nH]c3c(C)cccc23)NC(=O)[C@H]([C@@H](C)O)NC(=O)[C@H](CC(N)=O)NC(=O)[C@@H]2CSSC[C@H](NC1=O)C(=O)N[C@@H](Cc1ccc(OCCN(C)C)cc1)C(=O)N[C@@H](Cc1ccc3ccccc3c1)C(=O)NC1(CCOCC1)C(=O)N[C@H](C(=O)N[C@@H](CC(N)=O)C(=O)N[C@@H](Cc1c[nH]cn1)C(=O)NCCC(N)=O)CCC(=O)NCCCCC(=O)N2 [compound 49] ([Ava]CNT[Trp(7-Me)]K(Ac)CY(Me2NCH2CH2)[2Nal][Thp]ENH[βAla]-NH2; disulfide 2-7; lactam N-11) | 330 | 100 | 1790 | 85 | 75 | 74 | ≥ 1110 | ≥ 1090 | ≥ 1050 | ≥ 1040 |
| CC(=O)N[C@H]1CCCCNC(=O)[C@@H]2CSSC[C@H](NC(=O)[C@H](CCC(N)=O)NC(=O)[C@H](Cc3c[nH]c4ccccc34)NC1=O)C(=O)N[C@@H](Cc1ccc(OCCN)cc1)C(=O)N[C@@H](Cc1ccc3ccccc3c1)C(=O)NC(C)(C)C(=O)N[C@H](C(=O)N[C@@H](CC(N)=O)C(=O)NCC(N)=O)CCC(=O)N(C)CCCCC(=O)N2 [compound 15] (Ac-KWQC[AEF][2Nal][Aib]ENG-NH2; linker 1-4-8 via X3) | 200 | 30 | 29200 | 81 | 65 | 43 | ≥ 970 | ≥ 960 | ≥ 910 | 670 (≈ 421 µM) |
| CC(=O)NCCCC[C@@H]1NC(=O)[C@H](Cc2c[nH]c3c(C)cccc23)NC(=O)[C@H]([C@@H](C)O)NC(=O)[C@H](CC(N)=O)NC(=O)[C@@H]2CSSC[C@H](NC1=O)C(=O)N[C@@H](Cc1ccc(OCCN(C)C)cc1)C(=O)N[C@@H](Cc1ccc3ccccc3c1)C(=O)NC1(CCOCC1)C(=O)N[C@H](C(=O)N[C@@H](CC(N)=O)C(=O)N[C@@H](Cc1cccnc1)C(N)=O)CCC(=O)NCCCCC(=O)N2 [compound 51] ([Ava]CNT[Trp(7-Me)]K(Ac)CY(Me2NCH2CH2)[2Nal][Thp]EN[3Pal]-NH2; disulfide 2-7; lactam N-11) | 190 | 94 | 50 | 92 | 86 | 78 | ≥ 1020 | ≥ 930 | 430 (≈ 234 µM) | 100 (≈ 54.4 µM) |
| COc1ccc(C[C@@H]2NC(=O)[C@@H]3CSSC[C@H](NC(=O)CCCCNC(=O)CC[C@@H](C(=O)N[C@@H](CC(N)=O)C(=O)NCC(N)=O)NC(=O)C(C)(C)NC(=O)[C@H](Cc4ccc5ccccc5c4)NC2=O)C(=O)N[C@@H](CC(N)=O)C(=O)N[C@@H]([C@@H](C)O)C(=O)N[C@@H](Cc2c[nH]c4ccccc24)C(=O)N[C@@H](CCC(N)=O)C(=O)N3)cc1 [compound 4] ([Ava]CNTWQCY(Me)[2Nal][Aib]ENG-NH2; disulfide 2-7; lactam N-11) | 950 | 1 | 34800 | 91 | 82 | 73 | 30 (≈ 18.8 µM) | 20 (≈ 12.6 µM) | 20 (≈ 12.6 µM) | 10 (≈ 6.28 µM) |
| CC(=O)N[C@H]1CCCCNC(=O)[C@@H]2CSSC[C@H](NC(=O)[C@H](CCC(N)=O)NC(=O)[C@H](Cc3c[nH]c4ccccc34)NC1=O)C(=O)N[C@@H](Cc1ccc(OCCN)cc1)C(=O)N[C@@H](Cc1ccc3ccccc3c1)C(=O)NC1(CCOCC1)C(=O)N[C@H](C(=O)N[C@@H](C)C(=O)NCC(N)=O)CCC(=O)N(C)CCCCC(=O)N2 [compound 17] (Ac-KWQC[AEF][2Nal][Thp]EAG-NH2; linker 1-4-8 via X3) | 280 | 71 | 62000 | 81 | 75 | 64 | ≥ 1030 | ≥ 1000 | ≥ 970 | ≥ 880 |
| CC(=O)NCCCC[C@@H]1NC(=O)[C@H](Cc2c[nH]c3c(C)cccc23)NC(=O)[C@H]([C@@H](C)O)NC(=O)[C@H](CC(N)=O)NC(=O)[C@@H]2CSSC[C@H](NC1=O)C(=O)N[C@@H](Cc1ccc(OCCN(C)C)cc1)C(=O)N[C@@H](Cc1ccc3ccccc3c1)C(=O)NC(C)(C)C(=O)N[C@H](C(=O)N[C@@H](CC(N)=O)C(=O)N[C@@H](Cc1c[nH]cn1)C(=O)N(C)CC(N)=O)CCC(=O)NCCCCC(=O)N2 [compound 45] ([Ava]CNT[Trp(7-Me)]K(Ac)CY(Me2NCH2CH2)[2Nal][Aib]ENH[Sar]-NH2; disulfide 2-7; lactam N-11) | 320 | 100 | 670 | 82 | 83 | 74 | ≥ 1160 | ≥ 1060 | ≥ 1180 | 350 (≈ 189 µM) |
| CC(=O)N[C@H]1CCCCNC(=O)[C@@H]2CSSC[C@H](NC(=O)[C@H](CCC(N)=O)NC(=O)[C@H](Cc3c[nH]c4ccccc34)NC1=O)C(=O)N[C@@H](Cc1ccc(OCCN)cc1)C(=O)N[C@@H](Cc1ccc3ccccc3c1)C(=O)NC1(CCOCC1)C(=O)N[C@H](C(=O)N[C@@H](C)C(=O)N[C@H](CC(C)C)C(N)=O)CCC(=O)N(C)CCCCC(=O)N2 [compound 34] (Ac-KWQC[AEF][2Nal][Thp]EA[dL]-NH2; linker 1-4-8 via X3) | 570 | 84 | 13300 | 100 | 99 | 96 | ≥ 970 | ≥ 910 | 270 (≈ 164 µM) | 140 (≈ 85.1 µM) |
| CC(=O)NCCCC[C@@H]1NC(=O)[C@H](Cc2c[nH]c3c(C)cccc23)NC(=O)[C@H]([C@@H](C)O)NC(=O)[C@H](CC(N)=O)NC(=O)[C@@H]2CSSC[C@H](NC1=O)C(=O)N[C@@H](Cc1ccc(OCCN(C)C)cc1)C(=O)N[C@@H](Cc1ccc3ccccc3c1)C(=O)NC(C)(C)C(=O)N[C@H](C(=O)N[C@@H](CC(N)=O)C(=O)N[C@@H](Cc1c[nH]cn1)C(=O)NCCC(N)=O)CCC(=O)NCCCCC(=O)N2 [compound 48] ([Ava]CNT[Trp(7-Me)]K(Ac)CY(Me2NCH2CH2)[2Nal][Aib]ENH[βAla]-NH2; disulfide 2-7; lactam N-11) | 280 | 100 | 600 | 80 | 80 | 76 | ≥ 1060 | ≥ 1040 | ≥ 990 | ≥ 1040 |
